Like-named read-outs stand apart in the source and are kept apart here. Ends that are not written are not given here.
Assays:
[1] = intravenous administration, Konturek et al; cited from earlier work
hyperphagic obese mice = settings: cited from earlier work
[2] = test system: ovariectomized rats pretreated with estradiol benzoate plus progesterone; experiment: Food intake and ingestive behavior after two ivt injections, Example 1; format: in vivo, rat
Procedure: Adult female rats (CRL:CD® (SD)BR, Charles River Breeding Labs, Wilmington, MA) were maintained in individual wire bottom cages under controlled temperature and light (lights on 0500-1900 h) with ad libitum access to food and water. Rats were ovariectomized and permanent cannulae were implanted in the third cerebral ventricle under pentobarbital anesthesia (40 mg/kg, […]). Eleven to 13 days after surgery, rats were treated with estradiol benzoate (30 μg in 0.1 ml sesame oil, sc) and progesterone (15 mg in 0.3 ml sesame oil, sc). Two days later […], food and water were removed and patency of the ivt cannula was checked by observing efflux of cerebrospinal fluid. […] Immediately after the ivt injections, rats were returned to their home cages which contained a known amount of rat chow and observed for 60 min. The behavior was recorded in 5 mutually exclusive categories: eating, grooming, locomotion, resting and other [Blundell, Bio-grammar of Feeding: Pharmacological Manipulations and Their Interpretations. In: Cooper, S. J. (ed) Theory in Psychopharmacology, Academic Press, N.Y., Vol. I: 233 (1981)] the following measurements were derived; total food intake (g); latency to feeding response (min); duration of time spent eating (min); number of eating bouts (n); duration of eating bouts (min) and local eating rate (g/min). Local eating rate is a measure of amount of food consumed per unit time spent eating.
Although no attempt was made to quantify the water intake, the latency to drinking and amount of time spent on drinking were monitored.
The number of animals feeding and drinking after peptide treatment were compared with saline-treated rats by the Fisher exact probability test. Parameters of ingestive behavior of controls vs. peptide treated groups were analyzed by the Mann-Whitney U test. Comparisons within groups of parameters after the first and second injections were made with the Wilcoxon matched pairs - signed rank test.
(*=P<0.05; **=P<0.01, Mann-Whitney U tests; a=p<0.05; b=P<0.025; c=P<0.005, Fisher Exact Probability Test) and S=saline.

[3] = test system: estradiol benzoate-progesterone-treated ovariectomized rats; experiment: Ingestive behavior noticed after ivt hPP during LH release studies; format: in vivo, rat; settings: intraventricular (ivt) administration
From the text: 251; Morley et al (1973), Neurosci. Biobehav. Revs. 7: 281]. Recently, Tatemoto, Proc. Natl. Acad. Sci. USA. […] The detailed distribution pattern of neurons displaying NPY-like immunoreactivity in the rat brain has been described [Allen et al (1983), Science 221:877; Allen et al (1983), 13th Ann. Mtg. Soc. Neurosci. 9:291 (Abstr.); O'Donohue et al (1983), 13th Ann. Mtg. Soc. Neurosci. 9:290 (Abstr.)]. The physiological significance of NPY-like immunoreactivity in the rat brain is presently unknown.

normal adult male rats = experiment: Food intake after NPY and RPP by the Example 1 procedure, Example 3; format: in vivo, rat
[4] = hyperphagic obese mice, Malaisse et al
[5] = obese mice, intravenous, Zipf et al
[6] = 2 or 10 μg ivt, after second injection, P<0.02

## NC(=O)[C@@H]1CCCN1C(=O)[C@H](Cc1cnc[nH]1)NC(=O)[C@@H]1CCC(=O)N1 [TRH, p-Glu-His-Pro-NH2]
[1]
  food intake: suppressed food intake

## bovine pancreatic polypeptide [bovine PP]
Hyperphagic obese mice; [4]
  body weight gain: suppressed body weight gain
  food intake: reduced food intake
Hyperphagic obese mice; [5]
  food intake: decrease of food intake
  weight gain: decrease in weight gain

## human pancreatic polypeptide (APLEPVYPGDNATPEQMAQYAADLRRYINMLTRPRY; ends and bridges not checked; UniProt P01298 30-65, looked up) [hPP, human pancreatic polypeptide, straight-chain 36 amino acid residues; from Boehringer Mannheim]
[2]; 2 μg ivt
  rats that ate after the first injection: 4/6
[2]; 10 μg ivt
  rats in which the drinking response preceded the feeding response: 3/7
  rats that ate after the first injection: 5/7
[2]; [6]
  amount of time spent drinking: only the higher does of hPP produced a similar response
  number of animals drinking: only the higher does of hPP produced a similar response
[2]; 2 or 10 μg ivt, compared with saline treated control rats
  cumulative food intake: stimulated cumulative food intake
[2]; ivt
  number of rats grooming during the observation periods: Neither peptide altered the number of rats grooming
[3]
  ingestive behavior: enhanced ingestive behavior

## rat pancreatic polypeptide (APLEPMYPGDYATHEQRAQYETQLRRYINTLTRPRY; ends and bridges not checked; UniProt P06303 30-65, looked up) [RPP, rat pancreatic polypeptide, member of the vertebrate pancreatic polypeptides (Pancreatic Hormone III)]
Normal adult male rats
  cumulative food intake: enhanced cumulative food intake which is dose-dependent
